{"source": "patent US12622884B2", "about": "“Treatment and prevention of glioblastoma” (CONSEJO SUPERIOR DE INVESTIGACIONES CIENTÍFICAS, priority 2018, dated 2026)", "key": {"β2-adrenergic receptor": {"test_system": "β2-adrenergic receptor", "settings": "reported in the literature; cited from earlier work"}, "[1]": {"test_system": "U-87 glioblastoma cell line", "test": "RT-qPCR of stemness and neural differentiation marker mRNAs in U-87", "format": "cell-based, human", "settings": "48 hours; mRNA by RT-qPCR; dose-dependent", "protocol": "FIG. 3.—ICI 118,551 and propranolol decreased stemness biomarker expression in U-87 glioblastoma cell line, but increased the neural differentiation markers. A: The treatment of U-87 with ICI-118,551 and propranolol during 48 hours decreases the expression of stemness associated genes as GD3 synthase, ALDH1, Prominin (CD133), Sox2 and Nanog, whereas B: favors the expression of genes involved in neural cell differentiation (MAP2, GFAP and Nestin). Expression of the corresponding mRNAs was measured by RT-qPCR.\n(§1) RNAt was isolated using the Direct-zol RNA MiniPrep Kit (ZymoResearch) from U-87 cells washed with PBS, scraped off the plates and spun down. The pellet was treated with the Tri Reagent and homogenized for 5 min at room temperature before using the MiniPrep Kit as per instructions. The quality and concentration of the RNAt was evaluated by measuring the absorbance at 260, 230 and 280 nm with an ND-1000 spectrophotometer (NanoDrop Technologies, Wilmington, DE, USA). In all cases, the expected 260/280 (˜2.0) and 260/230 (2.0-2.2) ratio values accepted for pure RNA were obtained. To detect the two target miRs, 0.5 μg of the RNAt extracted from the cells was used for hybridization prior to measurement on the dual amperometric platform.\n(§2) The qScript microRNA Quantification System (Quanta BioSciences, Inc., Gaithersburg, MD, USA) was used to assess miR-21 and miR-205 expression. In brief, cDNA was synthesized using the qScript microRNA cDNA Synthesis Kit, using 10 ng of initial RNA per PCR reaction. The PCR conditions consisted of an initial activation at 50° C. for 2 min, followed by 40 cycles of 95° C. for 5 s, and 60° C. for 30 s in LightCycler 480 Real-Time PCR System (Roche). The Ct (threshold cycle) value for each primer was normalized to that of RNU6. To assess gene expression, cDNA was synthesized with the transcriptor first strand cDNA synthesis Kit (Roche) under the following PCR conditions: 40 amplification cycles of 95° C. for 10 seconds, 60° C. for 30 seconds and 72° C. for 30 seconds. ACTB was used as a reference gene for normalization and the real-time PCR reactions were performed in triplicate using the PerfeCTa SYBR Green SuperMix (Quanta BioSciences) for miRNAs and the FastStart Universal SYBR Green Master (Roche) for gene expression. The expression level of each gene was determined by the relative standard curve method and the primer sequences for target genes were obtained from the Universal ProbeLibrary Assay Design Center.\nHowever, mRNA from genes involved in neural cell differentiation, such as MAP2, GFAP and nestin (FIG. 3B), were increased in their expression (FIG. 3B). The expression of the corresponding mRNAs was measured by RT-qPCR."}, "U-87 stem cells": {"test_system": "U-87 stem cells", "test": "Extreme limited dilution assay (ELDA) for oncosphere formation", "format": "cell-based, human", "settings": "different concentrations; spheres quantified at 14 days", "protocol": "(§3) A: photographs of gliospheres formation after 72 hours of drug treatment. U-87 cells were cultured in medium for gliosphere formation, and either treated with vehicle (control, on the left), or with ICI 118,551, and propranolol at different concentrations from 10 to 100 μM. […] B: Limit dilution assay experiment (ELDA) for oncosphere formation in the presence of different concentrations of ICI 118,551 and propranolol.\n(§4) Following the protocol described elsewhere (Diaz-Guerra, E.; Lillo, M. A.; Santamaria, S.; Garcia-Sanz, J. A., Intrinsic cues and hormones control mouse mammary epithelial tree size. FASEB J 2012, 26 (9), 3844-53). Cells were detached from the plate with trypsin (Invitrogen) and plated in complete medium (DMEM/F-12 medium with GlutaMAX) supplemented with B27 (Gibco), 10 ng/ml epidermal growth factor (EGF: Invitrogen) and 10 ng/ml basic fibroblast growth factor (bFGF: Millipore) and they were maintained at 37° C. in 5% CO2. For the ELDA assay cells were dissociated to single cells with trypsin, and seeded at different dilutions (from 100 to 10 for U-87 cells) in sphere complete media following procedures described in Ponti, D et al., (Cancer Res 2005, 65 (13), 5506-11.). The final number of spheres was quantified at 14 days, and the final data and statistical significance was obtained with ELDA software (Hu, Y. et al J Immunol Methods 2009, 347 (1-2), 70-8). […]"}, "U-87 gliospheres": {"test_system": "U-87 gliospheres", "test": "Gliosphere formation of U-87 cells under drug treatment", "format": "cell-based, human", "settings": "10 to 100 μM; 72 hours of drug treatment", "protocol": "as §3, §4"}, "[2]": {"test_system": "U-87 gliospheres xenografts", "test": "Xenograft of U-87 gliospheres in NSG mice", "format": "in vivo", "settings": "3 mg/Kg body weight, 5 consecutive days immediately after xenograft, intraperitoneal", "protocol": "FIG. 4.—ICI 118,551 and Propranolol delay the tumor progression of U-87 xenografts in NSG immunodeppressed mice. A Xenograft using U-87 adherent cells: Mice (n=30) were inoculated with 10^6 cells of U-87 glioblastoma cell line, in the flank, as xenografts. Tumor volume was measured every 3 days. In A, when tumors reached around 100 mm^3 volume, mice were divided in 3 groups (n=9-10). One group was treated daily with 10 mg/Kg body weight with propranolol, another group with the same dose of ICI118,551, and the third group only with vehicle (DMSO). Drugs were intraperitoneally injected. […] B Xenograft using U-87 gliospheres: Mice were inoculated with 10^5 spheroids from the glioblastoma cell line U-87. […] The tumors were measured from the moment they were big enough to be sized.\nIn the case of B, mice were divided in 3 groups of 10 mice, and were treated the first 5 days after xenograft establishment with intraperitoneal injection of propranolol, or ICI118,551 at 3 mg/Kg body, or vehicle. […] From this moment on, tumor size was measured every 2-3 days along 4 weeks, and then the mice were sacrificed.\nOn the other hand, xenografts using U-87 gliospheres were also used. […] The tumors were measured from the moment they were big enough to be sized."}, "[3]": {"test_system": "human glioblastoma cell line U-87", "test": "U-87 cell viability by luminescence (ATP-Glo kit, Promega)", "format": "cell-based", "source_text": "FIG. 1.—ICI 118,551 is active as an antitumoral agent decreasing cell viability in the glioblastoma cell line and including the stem cell subpopulation. A: U-87 cell line expresses beta-adrenergic receptors type 2, as shown by confocal microscopy using a monoclonal antibody against human β2 adrenergic receptors (Abcam). B: ICI-118551 decreases viability of the human glioblastoma cell line U-87 either when grown in liquid suspension as oncospheres (gliospheres, stem cells) or in adhesion. Viability was quantified by luminescence using the ATP-Glo kit from Promega. C. β2-adrenergic receptor expression in the human glioblastoma cell line U87 was confirmed by mRNA expression by quantitative PCR in 3D cultures as gliospheres (HUVEC as positive control for β2-adrenergic receptor expression)."}, "[4]": {"test_system": "U87 Glioblastoma Cell Line", "test": "Expression of miR-21 and its targets PDCD4 and PTEN in U87 cells", "format": "cell-based, human", "settings": "48 hours, increasing amounts", "protocol": "FIG. 5. […] Furthermore, ICI increases the expression levels of […] targets such as PDCD4-proapoptotic agents1 (middle)—and PTEN—a glioblastoma suppressor (right).\nas §1\nas §2, with “ACTB was used as a reference gene for normalization and the real-time PCR reactions were performed in triplicate using the PerfeCTa SYBR Green SuperMix (Quanta BioSciences) for miRNAs and the FastStart Universal SYBR Green Master (Roche) for gene expression.” left out, “Center. […]” for “Center.”"}, "U-87 xenografts": {"test_system": "U-87 xenografts", "test": "Xenograft of U-87 adherent cells in NSG mice", "format": "in vivo", "settings": "intraperitoneal; for decrease in the tumor volume: 10 mg/Kg body daily, from tumor volume around 100 mm^3, versus vehicle; for adverse effects: 10 mg/Kg body weight daily, NSG mice", "protocol": "FIG. 4.—ICI 118,551 and Propranolol delay the tumor progression of U-87 xenografts in NSG immunodeppressed mice. A Xenograft using U-87 adherent cells: Mice (n=30) were inoculated with 10^6 cells of U-87 glioblastoma cell line, in the flank, as xenografts. Tumor volume was measured every 3 days. In A, when tumors reached around 100 mm^3 volume, mice were divided in 3 groups (n=9-10). One group was treated daily with 10 mg/Kg body weight with propranolol, another group with the same dose of ICI118,551, and the third group only with vehicle (DMSO). Drugs were intraperitoneally injected. […] B Xenograft using U-87 gliospheres: Mice were inoculated with 10^5 spheroids from the glioblastoma cell line U-87. Mice were divided in 3 groups of 9-10 animals and treated immediately after xenograft for 5 consecutive days with either 3 mg/Kg body weight of propranolol, or ICI 118,551, or only vehicle. The tumors were measured from the moment they were big enough to be sized.\nMale 7-8 weeks old NOD scid gamma (NSG) mice were injected in the dorsal flank with a total of either 10^6 cells of U-87 cell line (A), or with 10^5 cells coming from disaggregated gliospheres (B). In the case of A, when tumor size reached 100 mm^3 volume, mice were divided at random in 3 groups, of 9/10 mice each. One group was treated with intraperitoneal daily injection of 10 mg/Kg body of propranolol, other group with the same amount of ICI118,551, and finally, a control group was injected with vehicle. Tumor size was measured by a caliper every 2-3 days. Mice were sacrificed when tumor volume average of the control group reached an end point established on our ethical procedures.\nXenografts were made using U-87 adherent cells: Mice (n=30) were inoculated with 10^6 cells of U-87 glioblastoma cell line, in the flank, as xenografts. Tumor volume was measured every 3 days. When tumors reached around 100 mm^3 volume, mice were divided in 3 groups (n=9-10). One group was treated daily with 10 mg/Kg body weight with propranolol, another group with the same dose of ICI118,551, and the third group only with vehicle (DMSO). Drugs were intraperitoneally injected."}}, "note": "Where a name gives a salt, the structure may show the parent alone."}
{"molecule": "COc1ccc(OC)c(C(O)C(C)NC(C)(C)C)c1", "note": "(racemic) [Butoxamine, DL-erythro-α-(2,5-dimethoxyphenyl)-β-t-butyl aminopropanol hydrochloride]", "values": [{"measurement": "β2/β1 selectivity ratio", "setting": "β2-adrenergic receptor", "result": "at least 17"}]}
{"molecule": "Cc1ccc(OCC(O)C(C)NC(C)C)c2c1CCC2", "note": "[ICI 118,551, erythro-D,L-1(methylinden-4-yloxy)-3-isopropylaminobutan-2-ol]", "values": [{"measurement": "β2/β1 selectivity ratio", "setting": "β2-adrenergic receptor", "result": "at least 123"}, {"measurement": "expression of neural cell differentiation genes MAP2, GFAP and nestin", "setting": "[1]", "result": "increased"}, {"measurement": "expression of stemness associated genes GD3 synthase, ALDH1, prominin (CD 133), Sox2 and nanog", "setting": "[1]", "result": "decreased significantly"}, {"measurement": "ELDA dilution factor compared to control", "setting": "U-87 stem cells", "result": "increases"}, {"measurement": "inhibition of gliosphere formation", "setting": "U-87 gliospheres", "result": "dose-dependent inhibition"}, {"measurement": "rate of tumor growth versus vehicle treated mice", "setting": "[2]", "result": "significant delay"}, {"measurement": "differential sensitivity to the drug, adhesion versus 3D gliospheres", "setting": "[3]; 2D cells in adhesion compared with 3D gliospheres in suspension", "result": "more sensitive the cells grown in adhesion than the 3D gliospheres"}, {"measurement": "viability of the cancer stem cells", "setting": "[3]; 3D gliospheres, low μM concentrations", "result": "strongly affects the viability"}, {"measurement": "viability of U-87", "setting": "[3]; different doses, grown in liquid suspension as oncospheres (gliospheres) or in adhesion, ATP-Glo luminescence", "result": "decreased the viability"}, {"measurement": "expression level of PDCD4", "setting": "[4]", "result": "increases"}, {"measurement": "expression level of PTEN", "setting": "[4]", "result": "increases"}, {"measurement": "mRNA-21 expression", "setting": "[4]; compared with Propranolol", "result": "notably decreased"}, {"measurement": "decrease in the tumor volume", "setting": "U-87 xenografts", "result": "around 30%"}, {"measurement": "adverse effects", "setting": "U-87 xenografts", "result": "no adverse effects observed"}]}
{"molecule": "CC(C)NCC(O)COc1cccc2ccccc12", "note": "(stereo not shown) [propranolol]", "values": [{"measurement": "expression of neural cell differentiation genes MAP2, GFAP and nestin", "setting": "[1]", "result": "increased"}, {"measurement": "expression of stemness associated genes GD3 synthase, ALDH1, prominin (CD 133), Sox2 and nanog", "setting": "[1]", "result": "decreased significantly"}, {"measurement": "ELDA dilution factor compared to control", "setting": "U-87 stem cells", "result": "increases"}, {"measurement": "inhibition of gliosphere formation", "setting": "U-87 gliospheres", "result": "dose-dependent inhibition"}, {"measurement": "rate of tumor growth versus vehicle treated mice", "setting": "[2]", "result": "significant delay"}, {"measurement": "decrease in the tumor volume", "setting": "U-87 xenografts", "result": "around 30%"}, {"measurement": "adverse effects", "setting": "U-87 xenografts", "result": "no adverse effects observed"}]}
